Article PMC2009384, “The carcinogenicity of polycyclic hydrocarbon epoxides in newborn mice” (British Journal of Cancer, 1975)

Tested on: newborn Swiss mice
Experiment: Experiment I: carcinogenicity in newborn mice, benz(a)anthracene vs its K region epoxide (s.c. injection, tumour incidence to 70-75 weeks)
Excerpt: Br. J. Cancer (1975) 31, 182 THE CARCINOGENICITY OF POLYCYCLIC HYDROCARBON EPOXIDES IN NEWBORN MICE P. L. GROVER, P. SIMS, B. C. V. MITCHLEY AND F. J. C. ROE From the Chester Beatty Research Institute, Institute of Cancer Research, Royal Cancer Hospital, Fulham Road, London, SW3 6JB Received 9 August 1974. […] THE HYPOTHESIS that the carcino- genicity of polycyclic hydrocarbons is associated with the formation of epoxide metabolites (Grover, Hewer and Sims, 1971, 1972; Keysell et al., 1973) is sup- ported by some experimental evidence but remains unproven. […] The epoxides can also act as alkylating agents (Grover and Sims, 1970) and as mutagens (Ames, Sims and Grover, 1972; Huberman et al., 1971; Cookson, Sims and Grover, 1971; Fahmy and Fahmy, 1973). […] The newborn mouse, which is susceptible to carcinogenic polycyclic hydrocarbons (Roe, Rowson and Salaman, 1961; Roe, Mitchley and Walters, 1963; Walters and Roe, 1964, 1966) can be considered as a convenient source of several types of rapidly dividing cells. Consequently we have tested the K region epoxides derived from phenanthrene, benz(a)anthracene, 7-methylbenz(a)anthracene, dibenz(a,h)- anthracene, chrysene and 3-methylchol- anthrene, together with some of the CARCINOGENICITY OF POLYCYCLIC HYDROCARBON EPOXIDES IN MICE 183 parent hydrocarbons, for carcinogenicity using newborn mice. This paper presents the results that were obtained in these experiments. MATERIALS AND METHODS The polycyclic hydrocarbon epoxides, phenanthrene 9,10-oxide, benz(a)anthracene 5,6-oxide, 7-methylbenz(a)anthracene 5,6- oxide, dibenz(a,h)anthracene 5,6-oxide, chry- sene 5,6-oxide and 3-methylcholanthrene 11,12-oxide were prepared from the parent hydrocarbons (Newman and Blum, 1964; Boyland and Sims, 1965; Sims 1966). Two experiments were undertaken fol- lowing similar protocols. For each experi- ment Swiss mice from a specific pathogen- free colony were time mated so as to produce a large number of litters over the course of 2 or 3 days. […] Test compounds were suspended in poly- ethylene glycol (PEG) 400 and injections of 0-02 ml of the suspension were given by introducing a 25 gauge hypodermic needle through the skin near the root of the tail and threading it subcutaneously to deliver the injected material in the interscapular region. Injections were given to every mouse on the first day or first 3 days of life. The details of treatments and numbers of mice of each sex in each group are shown in Table I (Experiment I) and Table II (Ex- periment II). Surviving mice were weaned when they w ere 21 days old. Thereafter, males and females w ere separated and housed 6 per cage in metal boxes. A mixture of sawdust and wood shavings was used as bedding. The mice were fed on a standard cubed diet (Formulation 86 from C. Holdman and Sons (Plow co Feeds), Byers Lane, South Godstone, Surrey) and water was given ad libitum. Mice were inspected daily, and at weekly intervals they were weighed and palpated for tumours and other lesions. […] The experiment was terminated when surviving mice were between 70 and 75 weeks old. A full routine post- mortem examination, which included disten- sion of the urinary bladder with fixative, was carried out. The number of lesions thought to be neoplasms and the size of the largest such lesion in each organ affected were recorded. All tissues with suspected neoplasms were fixed in Bouin's solution. Haematoxylin and eosin stained 5 µm paraffin wax sections were prepared and examined microscopically. RESULTS The results of the two experiments in terms of tumour incidence are sum- marized in […].

[1] = Groups A, B and C, 3 x 200, 100, 50 µg s.c.
[2] = females, 50 µg per treatment s.c. on Days 0, 1 and 2
[3] = females, 50 µg per treatment s.c. on Days 0, 1 and 2 in PEG 400
[4] = females, 100 µg per treatment s.c. on Days 0, 1 and 2
[5] = females, 100 µg per treatment s.c. on Days 0, 1 and 2 in PEG 400
[6] = females, 200 µg per treatment s.c. on Days 0, 1 and 2
[7] = females, 200 µg per treatment s.c. on Days 0, 1 and 2 in PEG 400
[8] = males, 50 µg per treatment s.c. on Days 0, 1 and 2
[9] = males, 50 µg per treatment s.c. on Days 0, 1 and 2 in PEG 400
[10] = males, 100 µg per treatment s.c. on Days 0, 1 and 2
[11] = males, 100 µg per treatment s.c. on Days 0, 1 and 2 in PEG 400
[12] = males, 200 µg per treatment s.c. on Days 0, 1 and 2
[13] = males, 200 µg per treatment s.c. on Days 0, 1 and 2 in PEG 400

c1ccc2cc3c(ccc4ccccc43)cc2c1 [Benz(a)anthracene, reference compound]
15: No. of mice examined at p.m. at termination of experiment (70th-75th week) with liver tumours [10] | No. of mice examined at p.m. at termination of experiment (70th-75th week) with liver tumours [12] | No. of mice examined at p.m. at termination of experiment (70th-75th week) with multiple liver tumours [12] | No. of survivors at 70 weeks [13]
5: No. of mice examined at p.m. at termination of experiment (70th-75th week) with lung tumours [4] | No. of mice examined at p.m. at termination of experiment (70th-75th week) with lung tumours [8] | No. of mice examined at p.m. at termination of experiment (70th-75th week) with multiple liver tumours [8] | No. of mice examined at p.m. at termination of experiment (70th-75th week) with lung tumours [10]
11: No. of mice examined at p.m. at termination of experiment (70th-75th week) with multiple liver tumours [10]
18: No. of survivors at 50 weeks [7] | No. of survivors at 70 weeks [7] | No. of survivors at 50 weeks [13]
7: No. of mice examined at p.m. at termination of experiment (70th-75th week) with lung tumours [2]
29: No. of survivors at 50 weeks [9]
13: No. of survivors at 70 weeks [5]
19: No. of survivors at 70 weeks [11]
4: No. of mice examined at p.m. from 50th-70th week with liver tumours [10] | No. of mice examined at p.m. at termination of experiment (70th-75th week) with lung tumours [12] | No. of mice examined at p.m. at termination of experiment (70th-75th week) with multiple lung tumours [12]
21: No. of survivors at 70 weeks [3]
25: No. of survivors at 50 weeks [3] | No. of survivors at 70 weeks [9] | No. of survivors at 50 weeks [11]
9: No. of mice examined at p.m. at termination of experiment (70th-75th week) with liver tumours [8]
17: No. of survivors at 50 weeks [5]
10: No. of mice examined at p.m. at termination of experiment (70th-75th week) with lung tumours [6] | No. of mice examined at p.m. at termination of experiment (70th-75th week) with multiple lung tumours [6]
3: No. of mice examined at p.m. at termination of experiment (70th-75th week) with multiple lung tumours [2] | No. of mice examined at p.m. from 50th-70th week with liver tumours [8] | No. of mice examined at p.m. at termination of experiment (70th-75th week) with multiple lung tumours [10]
2: No. of mice examined at p.m. at termination of experiment (70th-75th week) with liver tumours [2] | No. of mice examined at p.m. at termination of experiment (70th-75th week) with multiple lung tumours [4] | No. of mice examined at p.m. from 50th-70th week with lung tumours [4] | No. of mice examined at p.m. at termination of experiment (70th-75th week) with liver tumours [6] | No. of mice examined at p.m. at termination of experiment (70th-75th week) with multiple lung tumours [8]
dose related effect: effect on the incidence of liver tumours in male mice [1] | effect on the incidence of lung tumours in mice of both sexes [1]
0: No. of mice examined at p.m. at termination of experiment (70th-75th week) with other tumours [2] | No. of mice examined at p.m. from 50th-70th week with liver tumours [2] | No. of mice examined at p.m. from 50th-70th week with other tumours [2] | No. of mice examined at p.m. at termination of experiment (70th-75th week) with liver tumours [4] | No. of mice examined at p.m. at termination of experiment (70th-75th week) with multiple liver tumours [4] | No. of mice examined at p.m. at termination of experiment (70th-75th week) with other tumours [4] | No. of mice examined at p.m. from 50th-70th week with liver tumours [4] | No. of mice examined at p.m. from 50th-70th week with other tumours [4] | No. of mice examined at p.m. from 50th-70th week with liver tumours [6] | No. of mice examined at p.m. from 50th-70th week with lung tumours [6] | No. of mice examined at p.m. from 50th-70th week with other tumours [6] | No. of mice examined at p.m. at termination of experiment (70th-75th week) with other tumours [8] | No. of mice examined at p.m. from 50th-70th week with other tumours [8] | No. of mice examined at p.m. from 50th-70th week with other tumours [10] | No. of mice examined at p.m. at termination of experiment (70th-75th week) with other tumours [12] | No. of mice examined at p.m. from 50th-70th week with other tumours [12]
1: No. of mice examined at p.m. at termination of experiment (70th-75th week) with multiple liver tumours [2] | No. of mice examined at p.m. from 50th-70th week with lung tumours [2] | No. of mice examined at p.m. at termination of experiment (70th-75th week) with multiple liver tumours [6] | No. of mice examined at p.m. at termination of experiment (70th-75th week) with other tumours [6] | No. of mice examined at p.m. from 50th-70th week with lung tumours [8] | No. of mice examined at p.m. at termination of experiment (70th-75th week) with other tumours [10] | No. of mice examined at p.m. from 50th-70th week with lung tumours [10] | No. of mice examined at p.m. from 50th-70th week with liver tumours [12] | No. of mice examined at p.m. from 50th-70th week with lung tumours [12]
